In patent US20220193076A1, “METHODS OF TREATING BREAST CANCER WITH TUCATINIB” (Seagen Inc., priority 2019, published 2022):
Several values for one entry are separate records, joined by “and”; a condition that tells them apart may be missing. Equal values may be shown once.

Assays:
[1] = Predicted hepatic metabolic stability across species; format: in vitro ADME
[2] = target: T1, organic cation transporter (OCT)2 (Homo sapiens, UniProt O15244); experiment: In vitro inhibition of OCT2 activity; format: in vitro ADME; details: read-out: 50% inhibitory concentration (IC50), OCT2
T1 sequence (O15244 1-555): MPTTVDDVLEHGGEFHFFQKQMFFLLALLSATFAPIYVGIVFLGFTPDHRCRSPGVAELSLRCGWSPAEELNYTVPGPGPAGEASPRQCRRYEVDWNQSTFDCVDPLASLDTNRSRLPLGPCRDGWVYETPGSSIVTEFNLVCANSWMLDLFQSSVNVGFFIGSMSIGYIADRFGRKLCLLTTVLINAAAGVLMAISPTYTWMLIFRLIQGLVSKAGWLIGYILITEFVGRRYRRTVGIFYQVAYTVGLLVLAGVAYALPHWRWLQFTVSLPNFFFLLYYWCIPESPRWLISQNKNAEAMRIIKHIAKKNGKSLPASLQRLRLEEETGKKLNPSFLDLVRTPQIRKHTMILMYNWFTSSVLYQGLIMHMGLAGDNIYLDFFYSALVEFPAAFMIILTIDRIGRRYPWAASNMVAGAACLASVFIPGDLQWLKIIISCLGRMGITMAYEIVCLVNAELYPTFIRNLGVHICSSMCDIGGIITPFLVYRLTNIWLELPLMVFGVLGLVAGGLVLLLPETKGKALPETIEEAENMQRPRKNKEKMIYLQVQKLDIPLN

CYP2C9 = CYP2C9 (Homo sapiens, UniProt P11712); experiment: Ki determination in pooled human liver microsomes, diclofenac 4'-hydroxylase (Example 5); format: in vitro ADME; set-up: endogenous in cells; host or cells: healthy human subjects, in vivo
Sequence of CYP2C9 (P11712 whole entry): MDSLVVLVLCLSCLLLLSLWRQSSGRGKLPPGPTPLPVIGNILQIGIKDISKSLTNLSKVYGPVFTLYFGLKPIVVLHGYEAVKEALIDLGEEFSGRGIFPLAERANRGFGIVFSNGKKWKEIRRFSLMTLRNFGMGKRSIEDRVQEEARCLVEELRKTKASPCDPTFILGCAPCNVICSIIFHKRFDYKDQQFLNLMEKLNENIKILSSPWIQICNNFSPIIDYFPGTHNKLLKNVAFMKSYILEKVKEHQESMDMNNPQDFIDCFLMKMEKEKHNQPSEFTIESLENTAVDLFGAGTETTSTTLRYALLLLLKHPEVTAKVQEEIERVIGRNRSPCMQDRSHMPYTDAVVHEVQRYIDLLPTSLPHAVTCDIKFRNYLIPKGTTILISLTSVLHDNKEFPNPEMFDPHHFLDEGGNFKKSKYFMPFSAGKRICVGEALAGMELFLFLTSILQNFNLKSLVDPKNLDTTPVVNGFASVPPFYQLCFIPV
Method: (§1) The objective of this study was to evaluate in vitro the Ki of tucatinib of the following human hepatic cytochrome P450 (CYP) enzymes (CYP2C8, CYP2C9, and CYP3A4) and UGT1A1. […] Pooled human liver microsomes (HLM) from 150 individuals (79 males and 71 females) were obtained from BioreclamationIVT (Baltimore, Md.) and stored at approximately −70° C. The microsomes were characterized by the supplier for total protein and selected cytochrome P450 activities. […] The final organic solvent contribution was ≤1%. Incubations were terminated by the addition of chilled acetonitrile containing a stable isotope-labeled internal standard. […] Samples were analyzed by liquid chromatography with tandem mass spectrometry (LC-MS/MS). Analyte concentrations were quantified by LC-MS/MS and interpolated from standard curves of authentic analyte. […] Activities were calculated based on analyte concentration, incubation time, and protein concentration. Enzymatic activity (pmol/minute/mg protein) was expressed as the formation of the analyte per final protein concentration per incubation time. Activity remaining was expressed as the enzymatic activity at each concentration point of the test article normalized by the solvent control mean activity. […]

CYP3A4 [3] = experiment: In vitro enzyme activity / mRNA induction in human hepatocytes; format: in vitro ADME
CYP3A4 [4] = target: T2, CYP3A4 (Homo sapiens, UniProt P08684); experiment: Example 2 Part A: effect of strong CYP3A4 inhibitor itraconazole on PK of tucatinib; format: in vivo; set-up: endogenous in cells; host or cells: healthy human subjects, in vivo; details: tucatinib 300 mg single dose in combination with itraconazole vs tucatinib alone
T2 sequence (P08684 whole entry): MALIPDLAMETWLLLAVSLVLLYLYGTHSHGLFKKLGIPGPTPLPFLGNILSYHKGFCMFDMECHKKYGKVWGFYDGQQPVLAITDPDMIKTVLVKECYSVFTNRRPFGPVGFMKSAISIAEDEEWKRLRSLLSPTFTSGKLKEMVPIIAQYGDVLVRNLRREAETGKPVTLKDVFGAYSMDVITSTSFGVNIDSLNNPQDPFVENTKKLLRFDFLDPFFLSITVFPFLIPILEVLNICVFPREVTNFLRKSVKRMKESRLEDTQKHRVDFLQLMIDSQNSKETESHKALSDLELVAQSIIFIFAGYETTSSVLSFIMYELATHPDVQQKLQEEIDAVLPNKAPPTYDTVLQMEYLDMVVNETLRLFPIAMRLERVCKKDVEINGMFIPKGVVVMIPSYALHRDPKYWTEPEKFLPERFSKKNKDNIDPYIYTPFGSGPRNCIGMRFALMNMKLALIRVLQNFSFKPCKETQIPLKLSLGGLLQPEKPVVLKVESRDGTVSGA
Method: A primary objective of the study is to assess the effect of a strong CYP3A4 inhibitor (itraconazole) on the single-dose PK of tucatinib. […] They were discharged on Day 8 after completion of the in-patient assessments. […] On Day 3, each subject received oral doses of 200 mg of itraconazole, twice daily (BID). From Day 4 to Day 7, each subject received single oral doses of 200 mg of itraconazole once daily (QD). Itraconazole was administered in the fed state (within 5 minutes after completion of meals). On Day 6, each subject received a single oral dose of 300 mg of tucatinib at about 2 hours after the completion of breakfast and after itraconazole in the morning. […] Other noncompartmental PK parameters may be reported. Additionally, blood samples were collected for determination of trough levels of itraconazole prior to morning dosing on the days indicated in FIG. 5.

CYP2C8 = target: T3, CYP2C8 (Homo sapiens, UniProt P10632); experiment: Ki determination in pooled human liver microsomes, amodiaquine N-deethylase (Example 5); format: in vitro ADME
T3 sequence (P10632 1-490): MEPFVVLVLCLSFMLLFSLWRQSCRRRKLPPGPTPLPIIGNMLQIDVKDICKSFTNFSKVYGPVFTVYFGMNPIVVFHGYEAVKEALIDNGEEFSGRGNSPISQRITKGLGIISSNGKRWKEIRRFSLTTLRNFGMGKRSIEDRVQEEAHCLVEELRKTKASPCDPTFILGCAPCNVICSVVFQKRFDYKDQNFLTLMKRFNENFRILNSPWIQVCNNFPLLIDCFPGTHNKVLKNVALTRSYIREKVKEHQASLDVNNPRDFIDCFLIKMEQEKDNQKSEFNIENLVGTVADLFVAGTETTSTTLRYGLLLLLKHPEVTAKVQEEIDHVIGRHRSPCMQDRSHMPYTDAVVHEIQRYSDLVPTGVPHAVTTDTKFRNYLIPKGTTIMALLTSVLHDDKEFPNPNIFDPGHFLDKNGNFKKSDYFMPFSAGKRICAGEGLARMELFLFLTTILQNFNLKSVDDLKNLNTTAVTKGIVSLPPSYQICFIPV
Method: as §1

MATE2K = MATE2K (Homo sapiens, UniProt Q86VL8); experiment: In vitro inhibition of MATE2K transporter; format: in vitro ADME
Sequence of MATE2K (Q86VL8 1-566 isoform Q86VL8-3): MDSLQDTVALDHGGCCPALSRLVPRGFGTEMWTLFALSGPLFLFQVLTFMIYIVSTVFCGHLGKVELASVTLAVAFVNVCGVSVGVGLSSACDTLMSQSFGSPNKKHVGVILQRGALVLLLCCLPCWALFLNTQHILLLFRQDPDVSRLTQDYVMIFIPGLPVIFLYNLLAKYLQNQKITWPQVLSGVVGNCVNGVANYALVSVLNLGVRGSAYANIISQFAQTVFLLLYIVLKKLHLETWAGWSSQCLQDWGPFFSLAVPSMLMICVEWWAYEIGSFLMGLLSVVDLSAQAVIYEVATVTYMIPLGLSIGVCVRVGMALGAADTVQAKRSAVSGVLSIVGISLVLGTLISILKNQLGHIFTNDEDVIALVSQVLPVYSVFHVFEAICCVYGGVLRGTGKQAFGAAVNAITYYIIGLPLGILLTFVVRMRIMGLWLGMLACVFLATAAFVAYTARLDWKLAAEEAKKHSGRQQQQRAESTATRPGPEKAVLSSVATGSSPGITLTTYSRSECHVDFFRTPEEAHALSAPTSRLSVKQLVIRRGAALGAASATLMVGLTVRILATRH

CYP3A4 [5] = target: T2, CYP3A4; experiment: Ki determination in pooled human liver microsomes, midazolam 1'-hydroxylase (Example 5); format: in vitro ADME
Method: as §1

CYP3A4 and CYP2C8 = experiment: Example 2 Part B: effect of inducer rifampin on PK of tucatinib; format: in vivo, human; details: tucatinib 300 mg single dose in combination with rifampin vs tucatinib alone
Method: They were discharged on Day 12 after completion of the in-patient assessments. […] On Day 3 through Day 11, each subject received single oral doses of 600 mg of rifampin once daily (QD). On Day 10, each subject received a single oral dose of 300 mg of tucatinib. […] Other noncompartmental PK parameters may be reported. Additionally, blood samples were collected for determination of trough levels of rifampin prior to morning dosing on the days indicated in FIG. 6.

SMILES: Cc1cc(Nc2ncnc3ccc(NC4=NC(C)(C)CO4)cc23)ccc1Oc1ccn2ncnc2c1 [tucatinib]
- Stability with respect to hepatic metabolism [1]: good-to-moderate stability
- IC50 [2]: 14700 nM
- Inhibition mechanism, CYP2C9 (CYP2C9): competitive inhibition
- Ki (CYP2C9; marker substrate diclofenac): 4570 nM
- Induction of in vitro enzyme activity or messenger ribonucleic acid, CYP3A4 (CYP3A4 [3]): did not induce
- Geometric LS mean ratio (90% CI), AUC0-∞ (CYP3A4 [4]): 1.34 (1.26, 1.43)
- Geometric LS mean ratio (90% CI), AUClast (CYP3A4 [4]): 1.33 (1.25, 1.41)
- Geometric LS mean ratio (90% CI), Cmax (CYP3A4 [4]): 1.32 (1.23, 1.42)
- Inhibition mechanism, CYP2C8 (CYP2C8): competitive inhibition
- Ki (CYP2C8; marker substrate amodiaquine): 170 nM
- IC50 (MATE2K): 140 nM
- Inhibition mechanism, CYP3A4 (CYP3A4 [5]): competitive inhibition
- Ki (CYP3A4 [5]; marker substrate midazolam): 810 nM and 805 nM
- Geometric LS mean ratio (90% CI), AUC0-∞ (CYP3A4 and CYP2C8): 0.520 (0.452, 0.597)
- Geometric LS mean ratio (90% CI), AUClast (CYP3A4 and CYP2C8): 0.517 (0.449, 0.596)
- Geometric LS mean ratio (90% CI), Cmax (CYP3A4 and CYP2C8): 0.632 (0.531, 0.753)
